Publication PMC12673918, “Design, Synthesis, and Selective Antiproliferative Activity of Indolizine Derivatives as Microtubule Destabilizers” (Archiv Der Pharmazie, 2025)

What was measured:
tubulin = test: Tubulin polymerization (inhibition) assay kit; type: biochemical; conditions: for effect on tubulin polymerization curves (RFU): compounds 5 µM, vs control and paclitaxel; for IC50: n = 2
Experimental: To evaluate the effect of the compounds on tubulin polymerization, the Tubulin Polymerization Assay Kit (Cytoskeleton Inc.) was used according to the manufacturer's instructions. Briefly, 5 µL of the compounds (final concentration ranging from 0.1 to 100 µM) were pipetted per well into a pre‐warmed 96‐well black‐bottom plate at 37°C. After 1 min, 55 µL of the tubulin reaction mix (1X Buffer 1, 0.7X Tubulin Glycerol Buffer, 1 mM GTP, and 2 mg/mL tubulin) was added to each well. Next, after 5 s of shaking, fluorescence detection (excitation: 340–360 nm, emission: 410–460 nm) was performed using a microplate fluorimeter. […] Data were plotted, and IC₅₀ values were determined by nonlinear regression using GraphPad Prism software 9.0.
^c Tubulin polymerization was evaluated using a commercial assay kit, following standard procedures. Compounds were incubated with tubulin, and fluorescence was measured over time to generate kinetic curves and determine the maximum polymerization rate (Vmax). These experiments were carried out in duplicate.

[1] = test system: BT‐20 breast cancer cells; test: Western blot of cell‐cycle, apoptosis and signaling proteins; type: cell-based; conditions: 2.5 µM for 24 h
Experimental: Cells were seeded in 10 cm plates (1.5 × 10⁶ cells/plate) and incubated for 24 h. Subsequently, the cells were treated with the compounds at a concentration of 2.5 µM for 24 h. After treatment, the cells were collected, and the proteins were isolated. A total of 30 µg of proteins were separated electrophoretically on a sodium dodecyl sulfate‐polyacrylamide gel (SDS‐PAGE) and transferred onto a polyvinylidene fluoride (PVDF) membrane (GE Healthcare) using the PowerBlotter Station (Invitrogen) according to the manufacturer's recommendations. After transfer, the membrane was blocked with a 5% (w/v) nonfat milk solution in TBS‐T (0.1 M Tris (pH 7.5), 0.9% NaCl, 0.1% Tween‐20) at room temperature for 1 h under gentle agitation. The membrane was then washed with TBS‐T and incubated with primary antibodies under agitation for approximately 16 h at 4°C. The primary antibodies used were: c‐Myc (#5605), ß‐tubulin (#2128), p21 (#2947), Cyclin D1 (#2978), Bcl‐2 (#15071), p‐AKT ser473 (#4058), and GAPDH (#2118) (Cell Signaling Technology). After primary antibody incubation, the membranes were washed with TBS‐T and incubated at room temperature for 1 h in a TBS‐T solution containing 5% nonfat milk and the HRP‐conjugated secondary antibody. Following the washes with TBS‐T, the membranes were incubated with the SuperSignal West Dura substrate (Thermo Scientific). Immunodetection was analyzed using the ChemiDoc imaging system (Bio‐Rad).

CCCc1cn2cc(OC)ccc2c1C(=O)c1cc(OC)c(OC)c(OC)c1 [Compound 8h, (6‐methoxy‐2‐propylindolizin‐1‐yl)(3,4,5‐trimethoxyphenyl)methanone]
effect on tubulin polymerization curves (RFU) (tubulin): most potent | IC50 (tubulin): 10.9 µM | Bcl‐2 levels [1]: decrease | cyclin D1 levels [1]: markedly decreased | p21 expression [1]: upregulated

COc1ccc2c(C(=O)c3cc(OC)c(OC)c(OC)c3)c(C(F)(F)F)cn2c1 [Compound 8e, [6‐methoxy‐2‐(trifluoromethyl)indolizin‐1‐yl](3,4,5‐trimethoxyphenyl)methanone]
effect on tubulin polymerization curves (RFU) (tubulin): most potent | IC50 (tubulin): 9.3 µM | Bcl‐2 levels [1]: decrease | cyclin D1 levels [1]: markedly decreased | p21 expression [1]: upregulated
